Data on 5 compounds can be found in patent US20260297060A1, “COMPOUNDS FOR THE DEGRADATION OF MUTANT BRAF” (C4 THERAPEUTICS, INC., priority 2023, published 2026).

Like-named read-outs stand apart in the source and are kept apart here.

A short description of data set [1]: Example 9 pharmacokinetics assay for the PK and PD study Part I, II and III (plasma, tumor, liver). It is filed as in vivo, BALB/c nude mice. The settings on record: mouse, po, 10 mg/kg, p.o., single dose, ± SEM. The method, then:
For the PK and PD study Part I, agents were administered to BALB/c nude mice bearing A375 human melanoma xenografts tumors. Dabrafenib, Compound 218 and Compound 157 were dosed via p.o. once on day 1. Dabrafenib was dosed at 100 mg/kg. Compound 218 and Compound 157 were dosed at 10 mg/kg.
For the PK and PD study Part II, agents were administered to BALB/c nude mice bearing A375 human melanoma xenografts tumors. Compound 133, Compound 144 and Compound 198 were dosed at 10 mg/kg via p.o. once on day 1.
For the PK and PD study Part III, agent was administered to BALB/c nude mice bearing A375 human melanoma xenografts tumors. Compound 204 were dosed at 10 mg/kg via p.o. once on day 1.
The plasma samples were collected at predetermined time points for PK analysis. The mice were euthanized at predetermined time points post the treatment. The blood samples were collected into the 1.5 mL Eppendorf tubes containing 15 μL of 0.5 M EDTA-K2. And then the anticoagulant blood samples were centrifuged at 2,500 g at 4° C. for 15 minutes. The plasma samples were separated into 2 aliquots. The 1st was used for PK analysis, and the 2nd served as backup. The samples were stored at −80° C. before bioanalysis.
The tumor samples were collected at predetermined time points for PK and WB analysis. The tumor was dissected out and split into 3 parts. The 1st part was used for PK analysis, the 2nd part was used for WB analysis and the last one served as backup for study. The samples were transferred into pre-labeled tubes and quickly froze in liquid nitrogen within 2 minutes after dissection. The samples were stored at −80° C. before bioanalysis.
Liver samples were collected at predetermined time points for PK analysis. The left lobe of the liver was dissected out and split into 2 parts. The 1st part was used for PK analysis and the 2nd part served as the backup for the study. The samples were transferred into pre-labeled tubes and quickly froze in liquid nitrogen within 2 minutes after dissection. The samples were stored at −80° C. before bioanalysis.
The harvested plasma, tumor and liver samples were processed for pharmacokinetics analysis by LC-MS/MS with a concentration range of 5.00-10,000 ng/mL for Compound 218, Compound 157 and Compound 133 in plasma, 0.500-1,000 ng/ml for Compound 218 in liver and tumor homogenate, 0.200-400 ng/mL for Compound 157, Dabrafenib and Compound 133 in liver and tumor homogenate, 0.500-1000 ng/mL for Dabrafenib and Compound 204 in plasma, 0.200-200 ng/mL for Compound 204 in liver and tumor homogenate, 20.0-20,000 ng/mL for Compound 144 and Compound 198 in plasma, 1.00-1,000 ng/mL for Compound 144 and Compound 198 in liver and tumor homogenate.

Data set [2] deals with T1, human bile salt export pump (BSEP) efflux transporter (Homo sapiens, UniProt O95342).
T1 construct: purchased SOLVO Biotechnology Charles River Laboratories, Szeged, Hungary; host or cells: HEK293 (inside out membrane vesicles)
T1 sequence (O95342 whole entry): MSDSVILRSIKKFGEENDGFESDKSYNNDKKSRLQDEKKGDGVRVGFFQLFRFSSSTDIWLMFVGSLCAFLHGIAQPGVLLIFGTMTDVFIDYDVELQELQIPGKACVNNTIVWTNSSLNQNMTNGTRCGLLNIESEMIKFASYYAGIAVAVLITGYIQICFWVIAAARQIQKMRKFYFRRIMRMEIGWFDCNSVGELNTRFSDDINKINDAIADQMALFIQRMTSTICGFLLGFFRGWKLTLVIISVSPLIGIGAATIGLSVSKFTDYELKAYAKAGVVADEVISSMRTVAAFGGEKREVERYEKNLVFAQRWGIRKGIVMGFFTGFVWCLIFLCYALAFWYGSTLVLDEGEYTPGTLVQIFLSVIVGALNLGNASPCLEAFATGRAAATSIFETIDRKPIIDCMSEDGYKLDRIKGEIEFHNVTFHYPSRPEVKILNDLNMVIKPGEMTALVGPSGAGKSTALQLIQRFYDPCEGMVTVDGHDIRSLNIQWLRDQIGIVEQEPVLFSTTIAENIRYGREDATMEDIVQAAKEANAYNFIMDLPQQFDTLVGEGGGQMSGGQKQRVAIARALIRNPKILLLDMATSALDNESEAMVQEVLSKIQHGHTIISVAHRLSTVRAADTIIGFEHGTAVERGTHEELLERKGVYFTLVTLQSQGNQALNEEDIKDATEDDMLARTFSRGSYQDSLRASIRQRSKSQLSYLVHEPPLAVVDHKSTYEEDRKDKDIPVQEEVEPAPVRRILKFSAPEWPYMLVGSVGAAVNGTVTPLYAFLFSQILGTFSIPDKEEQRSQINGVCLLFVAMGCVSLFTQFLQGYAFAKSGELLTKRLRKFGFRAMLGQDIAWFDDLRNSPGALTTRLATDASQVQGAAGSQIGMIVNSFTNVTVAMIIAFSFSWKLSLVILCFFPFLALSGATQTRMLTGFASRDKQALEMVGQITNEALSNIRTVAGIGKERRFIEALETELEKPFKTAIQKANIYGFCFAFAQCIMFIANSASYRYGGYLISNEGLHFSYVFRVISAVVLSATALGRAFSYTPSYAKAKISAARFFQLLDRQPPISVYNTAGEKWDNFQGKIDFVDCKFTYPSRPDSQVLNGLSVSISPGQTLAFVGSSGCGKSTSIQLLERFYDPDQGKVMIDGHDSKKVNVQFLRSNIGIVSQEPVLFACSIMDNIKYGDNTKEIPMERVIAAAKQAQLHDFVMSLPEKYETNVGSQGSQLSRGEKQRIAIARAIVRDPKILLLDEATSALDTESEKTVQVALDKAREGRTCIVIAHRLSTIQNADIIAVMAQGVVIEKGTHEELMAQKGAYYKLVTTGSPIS
Put plainly: BSEP Vesicular Transport Inhibition Assay (IC50 determination). It is filed as biochemical. The settings on record: human BSEP (HEK293) vesicles, taurocholate 0.2 μM, 4 mM Mg-ATP, 10 concentrations, 1 replicate. The method, then:
The vesicular transport (VT) assays were performed using inside out membrane vesicles derived from HEK293 cells expressing the specified human bile salt export pump (BSEP) efflux transporter. The membrane vesicles were procured from SOLVO Biotechnology Charles River Laboratories, Szeged, Hungary.
The principle of the assay relies on measuring the accumulation of substrate into inside out vesicles containing the efflux transporter. By utilizing inside out vesicles, the ATP-dependent transport of substrate is directed into the vesicular lumen, where low permeability compounds are then essentially trapped.
For the IC50 screen inhibition assay, 10 concentrations of each compound were tested in the presence of ATP (active transport) in 1 replicate.
The solvent control (DMSO) was tested in the presence of ATP (active transport) and in the presence of AMP (background) in 8 replicates.
Vesicular transport inhibition assays were performed using the specific parameters for each transporter inhibition assay described in Table 53.
Table 54 specifies treatment groups and concentration of compounds, that were examined in the vesicular transport inhibition assay. Detailed data of IC50 screen inhibition assay are shown in Table 55 and detailed data of 1 concentration inhibition assay are shown in Table 56.
The vesicular transport inhibition assay was performed with 4 mM Mg-ATP. For the IC50 screen inhibition assay, 10 concentrations of each compound were tested in the presence of ATP in 1 replicate. For the 1 concentration inhibition assay, 1 concentration of each compound was tested in the presence of ATP (active transport) in 2 replicates. The solvent control (DMSO) was tested in the presence of 4 mM Mg-ATP (active transport) and in the presence of 4 mM AMP (background) in 8 replicates.
The BSEP membrane vesicle suspension was mixed with the ice-cold transport buffer, then the taurocholate probe substrate solution was added (Reaction mixture, 50 μL per well). The compounds were added to the reaction mixture at 1.5-times the final assay concentration. […].
Reaction mixtures and the start reagent (Mg-ATP or AMP in transport buffer) were pre-warmed separately for 15 minutes to reach the incubation temperature of 37° C. […]
The reaction was initiated by the addition of the start reagent (25 μL) to the reaction mixture (diluting the reaction mixture to the final concentration). […] After the 5-minute incubation at 37° C., the reaction was stopped by the addition of 250 μL ice-cold washing mix to each well. […]
The samples were then be transferred to a filter plate and washed with 200 μL cold washing mix5-times to remove any free compounds or taurocholate probe substrate. The amount of taurocholate probe substrate inside the filtered vesicles were determined by liquid scintillation counting. […]

Where [3] appears, read: liver, read-out: Mean Concentration in Liver.
Where [4] appears, read: plasma, read-out: Mean Concentration in Plasma.
Where [5] appears, read: tumor, read-out: Mean Concentration in Tumor.

As to `CCN(C)S(=O)(=O)Nc1ccc(F)c(Oc2ccc3ncc(OC4CC5(CCN(C6CCC(c7cc8c(cc7F)c(N7CCC(=O)NC7=O)nn8C)CC6)CC5)C4)nc3c2)c1C#N` (single isomer, unassigned) [Compound 218, 7-[2-cyano-3-[[ethyl(methyl)sulfamoyl]amino]-6-fluoro-phenoxy]-2-[[7-[4-[3-(2,4-dioxohexahydropyrimidin-1-yl)-5-fluoro-1-methyl-indazol-6-yl]cyclohexyl]-7-azaspiro[3.5]nonan-2-yl]oxy]quinoxaline], in data set [1] (setting [3]), the concentration at 6 h worked out at 5710 ± 300 ng/g and the concentration at 12 h was 972 ± 40.9 ng/g. Also, in data set [1] (setting [4]), the concentration at 1 h was determined as 6310 ± 978 ng/mL, the concentration at 6 h was 1750 ± 96.1 ng/mL, the concentration at 12 h was 206 ± 11.5 ng/mL and the concentration at 24 h was 6.2 ± 3.47 ng/mL. In data set [1] (setting [5]), the concentration at 1 h came out at 1850 ± 164 ng/g, the concentration at 6 h turned out to be 1360 ± 21.9 ng/g, the concentration at 12 h worked out at 268 ± 26.7 ng/g and the concentration at 24 h was 13.4 ± 4.31 ng/g. Besides, the “BSEP Inhibition/IC50” value in data set [2] (in nM) is 13210.
Consider `CO[C@@H]1CCN(S(=O)(=O)Nc2ccc(F)c(Oc3ccc4ncn([C@H]5COC6(CCN(C7CC8(C7)CN(c7cc9c(cc7F)c(N7CCC(=O)NC7=O)nn9C)C8)CC6)C5)c(=O)c4c3)c2C#N)C1` [Compound 144, (3R)-N-[2-cyano-3-[3-[(3R)-8-[2-[3-(2,4-dioxohexahydropyrimidin-1-yl)-5-fluoro-1-methyl-indazol-6-yl]-2-azaspiro[3.3]heptan-6-yl]-1-oxa-8-azaspiro[4.5]decan-3-yl]-4-oxo-quinazolin-6-yl]oxy-4-fluoro-phenyl]-3-methoxy-pyrrolidine-1-sulfonamide], for which, in data set [1] (setting [3]), the concentration at 6 h is 1890 ± 584 ng/g and the concentration at 12 h amounted to 873 ± 234 ng/g. In data set [1] (setting [4]), the concentration at 1 h is 11600 ± 2260 ng/mL, the concentration at 6 h was 6220 ± 1880 ng/mL, the concentration at 12 h was 1240 ± 395 ng/mL and the concentration at 24 h stood at 143 ± 15.4 ng/mL. Also, in data set [1] (setting [5]), the concentration at 1 h came to 946 ± 172 ng/g, the concentration at 6 h is 1180 ± 406 ng/g, the concentration at 12 h is 616 ± 127 ng/g and the concentration at 24 h amounted to 183 ± 45.4 ng/g. Moreover, in data set [2], the BSEP Inhibition/IC50 stood at 7.94 µM.
Consider `Cn1nc(N2CCC(=O)NC2=O)c2cc(F)c(N3CC4(CC(N5CCC6(CC5)C[C@@H](n5cnc7ccc(Oc8c(F)ccc(NS(=O)(=O)N9CC[C@@H](F)C9)c8C#N)cc7c5=O)CO6)C4)C3)cc21` [Compound 133, (3R)-N-[2-cyano-3-[3-[(3R)-8-[2-[3-(2,4-dioxohexahydropyrimidin-1-yl)-5-fluoro-1-methyl-indazol-6-yl]-2-azaspiro[3.3]heptan-6-yl]-1-oxa-8-azaspiro[4.5]decan-3-yl]-4-oxo-quinazolin-6-yl]oxy-4-fluoro-phenyl]-3-fluoro-pyrrolidine-1-sulfonamide], for which, in data set [1] (setting [3]), the concentration at 6 h turned out to be 2030 ± 179 ng/g and the concentration at 12 h was found to be 503 ± 207 ng/g. In data set [1] (setting [4]), the concentration at 1 h is 8880 ± 604 ng/mL, the concentration at 6 h was determined as 3460 ± 69.8 ng/mL, the concentration at 12 h came out at 733 ± 348 ng/mL and the concentration at 24 h stood at 23.4 ± 5.56 ng/mL. For the same compound, in data set [1] (setting [5]), the concentration at 1 h amounted to 764 ± 122 ng/g, the concentration at 6 h is 686 ± 6.23 ng/g, the concentration at 12 h came to 316 ± 172 ng/g and the concentration at 24 h was determined as 41.7 ± 26.4 ng/g. Also, the BSEP Inhibition/IC50 in data set [2] is 6.22 µM.
In the case of `CCN(C)S(=O)(=O)Nc1ccc(F)c(Oc2ccc3ncn(C4CC5(C4)CN(C4CCC(c6cc7c(cc6F)c(N6CCC(=O)NC6=O)nn7C)CC4)C5)c(=O)c3c2)c1C#N` (single isomer, unassigned) [Compound 204, 6-[2-cyano-3-[[ethyl(methyl)sulfamoyl]amino]-6-fluoro-phenoxy]-3-[2-[4-[3-(2,4-dioxohexahydropyrimidin-1-yl)-5-fluoro-1-methyl-indazol-6-yl]cyclohexyl]-2-azaspiro[3.3]heptan-6-yl]-4-oxo-quinazoline], in data set [1] (setting [3]), the concentration at 6 h stood at 606 ± 73.4 ng/g and the concentration at 12 h stood at 291 ± 103 ng/g. In data set [1] (setting [4]), the concentration at 1 h stood at 2070 ± 407 ng/mL, the concentration at 6 h amounted to 104 ± 6.18 ng/mL and the concentration at 12 h came to 32.9 ± 12.1 ng/mL. In addition, in data set [1] (setting [5]), the concentration at 1 h amounted to 74.7 ± 16.5 ng/g, the concentration at 6 h was found to be 112 ± 11 ng/g and the concentration at 12 h was determined as 45 ± 9.93 ng/g. The “BSEP Inhibition/IC50” value in data set [2] (in nM) is over 40000.
As to `CCN(C)S(=O)(=O)Nc1ccc(F)c(Oc2ccc3ncn(C4CC5(CCN(C6CC7(CCN(c8cc9c(cc8F)c(N8CCC(=O)NC8=O)nn9C)CC7)C6)CC5)C4)c(=O)c3c2)c1C#N` (centres unmarked) [Compound 198, 6-[2-cyano-3-[[ethyl(methyl)sulfamoyl]amino]-6-fluoro-phenoxy]-3-[7-[7-[3-(2,4-dioxohexahydropyrimidin-1-yl)-5-fluoro-1-methyl-indazol-6-yl]-7-azaspiro[3.5]nonan-2-yl]-7-azaspiro[3.5]nonan-2-yl]-4-oxo-quinazoline], in data set [1] (setting [3]), the concentration at 6 h was determined as 2240 ± 416 ng/g and the concentration at 12 h worked out at 1020 ± 177 ng/g. Moreover, in data set [1] (setting [4]), the concentration at 1 h was 2430 ± 91.7 ng/mL, the concentration at 6 h was 2670 ± 117 ng/mL, the concentration at 12 h is 1700 ± 172 ng/mL and the concentration at 24 h was 573 ± 94.2 ng/mL. In data set [1] (setting [5]), the concentration at 1 h came to 441 ± 38.8 ng/g, the concentration at 6 h stood at 1120 ± 28.5 ng/g, the concentration at 12 h worked out at 776 ± 107 ng/g and the concentration at 24 h came out at 383 ± 128 ng/g. In data set [2] (in nM), the “BSEP Inhibition/IC50” value is 15250.
